Numbers after ± are expanded uncertainties.
Assay: Molar enthalpy of transition or fusion
Details: Crystal; Adiabatic calorimetry

Molar enthalpy of transition or fusion: 3.659 ± 0.012 kcal/mol
Compound: CCCCCCCC[n+]1ccn(C)c1.F[B-](F)(F)F [1-methyl-3-octylimidazolium tetrafluoroborate]

Source: the NIST ThermoML archive (doi:10.1016/j.tca.2015.01.022)
